Reference: PubChem BioAssay (NCI)
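Five compound concentrations were applied to cells in 96-well plates for 48 hours; endpoints were derived by simple linear interpolation of the resulting dose-response curve. GI50: concentration for 50% inhibition of growth. At the TGI there is no net growth.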

Experiments:
Assay in all cases: NCI tumour cell line growth inhibition, 48 h
786-0 renal = test system: 786-0 renal
UACC-257 melanoma = test system: UACC-257 melanoma
M14 melanoma = test system: M14 melanoma
OVCAR-4 ovarian = test system: OVCAR-4 ovarian
SF-268 CNS = test system: SF-268 CNS
KM12 colon = test system: KM12 colon
CCRF-CEM leukemia = test system: CCRF-CEM leukemia
NCI-H522 lung = test system: NCI-H522 lung
NCI-H226 lung = test system: NCI-H226 lung
PC-3 prostate = test system: PC-3 prostate

| Structure (SMILES) | TGI (786-0 renal) | TGI (UACC-257 melanoma) | TGI (M14 melanoma) | TGI (OVCAR-4 ovarian) | TGI (SF-268 CNS) | TGI (KM12 colon) | TGI (CCRF-CEM leukemia) | TGI (NCI-H522 lung) | TGI (NCI-H226 lung) | GI50 (NCI-H226 lung) | GI50 (786-0 renal) | GI50 (UACC-257 melanoma) | GI50 (M14 melanoma) | GI50 (OVCAR-4 ovarian) | GI50 (SF-268 CNS) | GI50 (KM12 colon) | GI50 (CCRF-CEM leukemia) | GI50 (PC-3 prostate) | TGI (PC-3 prostate) | GI50 (NCI-H522 lung) |
| --- | --- | --- | --- | --- | --- | --- | --- | --- | --- | --- | --- | --- | --- | --- | --- | --- | --- | --- | --- | --- |
| OCCN(CCO)c1cccc(N(CCO)CCO)c1 | > 100 µM | > 100 µM | > 100 µM | > 100 µM | > 100 µM | > 100 µM | > 100 µM | > 100 µM |  |  |  |  |  |  |  |  |  |  |  |  |
| CCNc1c(C(=O)N(CC)CC)c(=O)[nH]c2ncccc12 | > 100 µM | > 100 µM | > 100 µM | > 100 µM | > 100 µM | > 100 µM | > 100 µM | > 100 µM | > 100 µM |  |  |  |  |  |  |  |  |  |  |  |
| NC(=O)C(Br)CBr (centres undefined) | 16.1 µM | 3.27 µM | 3.02 µM | 2.55 µM | 8.29 µM | 21 µM | 6.93 µM |  | 27.1 µM | 7.68 µM | 5.65 µM | 1.64 µM | 1.63 µM | 1.25 µM | 2.65 µM | 7.63 µM | 1.05 µM | 2.51 µM | 11.7 µM |  |
| CS(=O)(=O)N(CCC#N)c1ccc(/C=N/NC(=O)CC(=O)Nc2cccc(Cl)c2)cc1 | > 100 µM | > 100 µM | > 100 µM | > 100 µM | > 100 µM | > 100 µM | > 100 µM | > 100 µM | > 100 µM |  |  |  |  |  |  |  |  |  |  |  |
| N#CCCN(CCC#N)c1ccc(/C=C2\N=C(COc3ccc(Cl)cc3Cl)OC2=O)cc1 | > 100 µM | > 100 µM | > 100 µM | > 100 µM | > 100 µM | > 100 µM | > 100 µM | > 100 µM |  |  |  |  |  |  |  |  |  |  |  |  |
| O=CN1N=C(c2ccc(Nc3ccnc4cc(Cl)ccc34)cc2)CC1c1ccccc1 (centres undefined) | 12.2 µM | > 100 µM | 31 µM | > 100 µM | > 100 µM | 56.9 µM | 8.55 µM |  | > 100 µM | 5.22 µM | 3.36 µM | 10.1 µM | 4.12 µM | 3.88 µM | 3.96 µM | 3.41 µM | 2.51 µM | 4.76 µM | > 100 µM |  |
| Cc1cc2c(cc1C)[n+](=O)c(C(=O)/C=C/c1ccc(Cl)cc1)c(C)n2[O-] | 34.4 µM | 89.9 µM | 54.1 µM | 81.9 µM |  | > 100 µM | > 100 µM | 50.4 µM | > 100 µM |  |  |  |  |  |  |  |  |  |  |  |
| O=c1[nH]c(-c2ccccc2)nc2ccc(Cl)cc12 | > 100 µM | > 100 µM |  | > 100 µM | > 100 µM | > 100 µM |  | 95.7 µM | > 100 µM |  |  |  |  |  |  |  |  |  |  |  |
| CS(=O)(=O)OCCN1CCN(C(=O)c2cccc3c(Nc4ccc(S(N)(=O)=O)cc4)c4ccccc4nc23)CC1 | > 100 µM | > 100 µM | > 100 µM | > 100 µM | > 100 µM | > 100 µM | > 63 µM | > 100 µM | > 100 µM |  |  |  |  |  |  |  |  |  |  |  |
| NC1CCCCC1N.O=C([O-])P(=O)([O-])[O-].[Na+].[Pt+4] (centres undefined) | > 100 µM | > 100 µM | > 100 µM | > 100 µM | > 100 µM | > 100 µM | > 100 µM |  | > 100 µM | > 100 µM | > 100 µM | > 100 µM | > 100 µM | > 100 µM | > 100 µM | > 100 µM | > 100 µM |  |  |  |
| O=S(=O)([O-])[O-].[Cl-].[NH2-].[NH2-].[NH2-].[NH2-].[Ru+3].c1ccc(-c2cccnc2)cc1 | > 100 µM | > 100 µM | > 100 µM | > 100 µM | > 100 µM | > 100 µM | > 100 µM | > 100 µM | > 100 µM | > 100 µM | > 100 µM | > 100 µM | > 100 µM | > 100 µM | > 100 µM | > 100 µM | > 100 µM |  |  | > 100 µM |
| O=C(CC1(O)C(=O)Nc2ccc(Br)cc21)c1ccc(Cl)cc1 (centres undefined) | > 100 µM | 98 µM | > 100 µM | > 100 µM | > 100 µM | > 100 µM | > 100 µM | > 100 µM | > 100 µM |  |  |  |  |  |  |  |  |  |  |  |
| COc1cccc2c1C1(O)C2CCCC12OCCCO2 (centres undefined) | > 100 µM | > 100 µM | > 100 µM | > 100 µM | > 100 µM | > 100 µM | > 100 µM | > 100 µM | > 100 µM |  |  |  |  |  |  |  |  |  |  |  |
| CCN(CC)c1ccc(N=C2C=CC(=O)c3ncccc32)c(C)c1 | 16.6 µM | 15 µM | 13.4 µM | 4.93 µM | 21.3 µM | 27.1 µM | 14.6 µM |  | 38.8 µM |  |  |  |  |  |  |  |  |  |  |  |
